Legend:
[1] = target: T1, ADO-Co^2+ (Homo sapiens, UniProt Q96SZ5); experiment: SPR binding (single cycle kinetics) to cobalt-substituted ADO; conditions: 4 °C, significantly slower off-rate
T1 construct: Full-length human ADO (UniProt ID: Q96SZ5) was cloned; made in house; host or cells: Rosetta2(DE3) Escherichia coli, M9 minimal media with 0.2 mM Co2+ or Zn2+
T1 sequence (Q96SZ5 1-270): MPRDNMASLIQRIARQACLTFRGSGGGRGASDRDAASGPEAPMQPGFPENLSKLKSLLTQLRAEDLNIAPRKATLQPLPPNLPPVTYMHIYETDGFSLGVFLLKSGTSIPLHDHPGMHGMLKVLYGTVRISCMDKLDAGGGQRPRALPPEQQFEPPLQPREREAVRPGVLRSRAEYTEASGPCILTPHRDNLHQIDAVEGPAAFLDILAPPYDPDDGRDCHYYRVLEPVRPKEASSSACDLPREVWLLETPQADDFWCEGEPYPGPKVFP
Method: To study if different metals can compensate for the inherent iron cofactor, zinc (Zn^2+) and cobalt (Co^2+) substituted ADO was produced through minimal media expression, validated by ICP-MS, and analyzed for binding by SPR (Fig. 2E).
(§1) SPR measurements were made using a Biacore T200 (Cytiva) instrument and data were analyzed using the Biacore Insight Evaluation Software (Cytiva; https://www.cytivalifesciences.com/en/us/shop/protein-analysis/spr-label-free-analysis/spr-software-and-extensions/biacore-insight-evaluation-software-p-23528). Biotinylated-ADO was immobilized on a Biotin CAP chip (Cytiva) with a target density of ∼2500 to 3000 RU and peptide/protein substrates were injected over the chip. […] A buffer comprising 20 mM Hepes pH 7.5, 500 mM NaCl, 10 mM DTT, and 0.1% (v/v) tween-20 was used as the running buffer at a flow rate of 50 μl/min.

[2] = target: T2, ADO (2-aminoethanethiol dioxygenase), iron-bound wild type (Homo sapiens, UniProt Q96SZ5); experiment: SPR binding of peptide/protein substrates to immobilised ADO
T2 construct: Full-length human ADO (UniProt ID: Q96SZ5) was cloned; made in house; host or cells: Rosetta2(DE3) Escherichia coli
T2 sequence (Q96SZ5 1-270): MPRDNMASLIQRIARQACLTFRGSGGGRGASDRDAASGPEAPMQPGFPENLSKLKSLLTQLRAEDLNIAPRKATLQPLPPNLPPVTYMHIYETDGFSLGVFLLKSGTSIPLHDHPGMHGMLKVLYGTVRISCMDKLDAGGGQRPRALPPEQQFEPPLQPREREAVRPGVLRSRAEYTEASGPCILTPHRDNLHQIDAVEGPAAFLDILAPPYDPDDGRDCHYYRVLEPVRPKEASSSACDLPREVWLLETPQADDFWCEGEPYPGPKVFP
From the text: ADO catalyzes the O2-dependent sulfinylation of Nt-cys residues, which reportedly bind to the iron cofactor in a monodentate arrangement through ligation of the thiol group ([14], [15]). To test the importance of Nt-cys modifications and substitutions on ADO association, a SPR assay was established. […] Data collected under steady state conditions is presented in the main text and kinetic constants are provided in the Tables S1–S8 (alongside steady state measurements). All measurements were collected at 4 °C to minimize enzyme activity.
as §1
For metal-chelation experiments, a mixture of 10 mM 1, 10-phenanthroline and 100 mM EDTA (pH 8) was injected onto the chip using 10 × 60 s injections at a 100 μl/min flow rate. […] The instrument and chip were primed into buffer excluding reducing agents before conducting metal chelation and iron reconstitution.

[3] = target: T3, ADO (Homo sapiens, UniProt Q96SZ5); experiment: LC-MS enzyme activity assay (Nt-cys sulfinylation by ADO); type: biochemical; conditions: 100 μM peptide, 0.1 μM ADO, 37 °C, 45 s and 1 h incubations
T3 construct: Full-length human ADO (UniProt ID: Q96SZ5) was cloned; made in house; host or cells: Rosetta2(DE3) Escherichia coli
T3 sequence (Q96SZ5 1-270): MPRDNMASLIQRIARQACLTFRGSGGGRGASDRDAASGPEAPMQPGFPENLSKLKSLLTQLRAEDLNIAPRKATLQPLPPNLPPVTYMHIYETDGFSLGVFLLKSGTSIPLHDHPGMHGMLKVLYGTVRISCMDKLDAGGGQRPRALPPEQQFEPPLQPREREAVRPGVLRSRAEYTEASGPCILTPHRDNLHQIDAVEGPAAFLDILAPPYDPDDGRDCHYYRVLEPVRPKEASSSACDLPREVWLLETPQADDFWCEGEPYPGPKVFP
Method: […] Otherwise stated, the reaction buffer contained 50 mM Tris pH 7.5, 50 mM NaCl, and 5 mM TCEP. The reactions were quenched by mixing the sample 1:10 (peptide) or 1:5 (protein) with 1% formic acid (v/v).
Peptide and protein samples were injected onto a Chromolith RP-18 Endcapped HPLC Columns (100–2 mm; Merck) and Discovery BIO Wide Pore C5 HPLC Column (Supelco), respectively, heated to 40 °C and eluted at 0.3 ml/min using a gradient of 95% deionized water supplemented with 0.1% (v/v) formic acid to 95% acetonitrile. Oxidation was monitored by an ultra high-performance liquid chromatography MS using ExionLC AD (Sciex) and SelexION (Sciex) mass spectrometer operated in a positive electrospray TOF (+ESI-TOF) mode. Instrument parameters, data acquisition and data processing were controlled by Analyst software (Sciex; https://sciex.com/products/software/analyst-software). The peptide data processing was performed using Skyline software (MacCoss Lab Software; https://skyline.ms/project/home/software/Skyline/begin.view) ([38]). All figures and parameters were generated using GraphPad Prism 9 (GraphPad; https://www.graphpad.com/features).

[4] = target: T4, ADO-H193D (Homo sapiens, UniProt Q96SZ5, H193D); experiment: SPR binding to metal-deficient ADO-H193D mutant; conditions: 4 °C
T4 construct: Full-length human ADO (UniProt ID: Q96SZ5) was cloned; made in house; host or cells: Rosetta2(DE3) Escherichia coli
T4 sequence (Q96SZ5 1-270 H193D): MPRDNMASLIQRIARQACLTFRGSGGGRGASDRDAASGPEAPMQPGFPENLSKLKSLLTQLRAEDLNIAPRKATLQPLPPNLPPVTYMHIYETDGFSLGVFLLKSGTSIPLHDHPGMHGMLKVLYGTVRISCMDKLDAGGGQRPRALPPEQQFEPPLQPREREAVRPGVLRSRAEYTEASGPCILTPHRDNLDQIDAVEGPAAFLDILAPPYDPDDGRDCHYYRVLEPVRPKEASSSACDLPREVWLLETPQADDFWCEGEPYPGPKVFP
From the text: To further validate the importance of metal coordination in protein substrate binding, an ADO-H193D mutant, which is known to impair iron retention, was generated (Fig. S1B). A significant reduction in metal occupancy was confirmed by ICP-MS (Fig. 2C). This correlated with a low SPR-binding response of approximately ∼2 to 3 RU, indicating a reduced population of substrate-binding ADO on the chip relative to the total amount of immobilized ADO (Figs. 2D and S5D). Furthermore, the calculated Kᴅ values with native RGS5 and IL32 peptides were ∼13-fold and ∼77-fold weaker, respectively, than the interactions with WT ADO (Table S3).
as §1

[5] = target: 2-aminoethanethiol (cysteamine) dioxygenase (ADO), biotinylated, for SPR (human) (UniProt Q96SZ5); experiment: SPR; Biacore T200; biotinylated ADO immobilized on a Biotin CAP chip (∼2500 to 3000 RU), peptide/protein substrates injected; 4 °C; 20 mM Hepes pH 7.5, 500 mM NaCl, 10 mM DTT, 0.1% tween-20; 50 μl/min; multicycle, equilibrium steady state affinity 1:1 binding model

Substance | Fold increase in binding affinity with ADO-Co^2+ relative to native ADO [1] | Kd ([2]; SPR steady state, 1:1 binding model, biotinylated ADO on Biotin CAP chip, 4 °C, 20 mM Hepes pH 7.5, 500 mM NaCl, 10 mM DTT, 0.1% tween-20, geometric mean (± SD) of minimum three independent measurements, read-out: Equilibrium dissociation constant KD) | Maximum response (Rmax) ([2]; SPR, ADO prior to chelation treatment) | Loss in Rmax following chelation of the immobilized ADO-bound metal ([2]; SPR, after 10 mM 1,10-phenanthroline and 100 mM EDTA) | Oxidation (sulfinylation, +32 Da) by ADO [3] | Fold weaker KD with ADO-H193D than with WT ADO [4] | Kd [5]
H-CFPKVLSDDMKKLK-NH2 (C-terminus assumed) [IL32] | ~10 fold | 270 ± 5 nM | ~20 RU | ~80% | could be oxidized by ADO | ~77 fold | 
RGS5 dipeptide (di-RGS5) (from UniProt O15539 2-3) |  |  |  |  |  |  | 1200 nM
RGS5 tripeptide (tri-RGS5) (from UniProt O15539 2-4) |  |  |  |  |  |  | 460 nM

— article PMC11406360, “The enzymatic oxygen sensor cysteamine dioxygenase binds its protein substrates through their N-termini” (The Journal of Biological Chemistry, 2024)
